Data from ChEMBL document CHEMBL3045434, “Synthesis, characterization, and biological evaluation of novel thiazole and pyrazole derivatives of quinoline-4-carboxylic acid as potential antimicrobial agents” (2013).
In brackets after ≈: the same amount, converted by molar mass.

Legend:
Format in all cases: functional
[1] = test system: Aspergillus fumigatus; experiment: Antifungal activity against Aspergillus fumigatus MTCC 343 by disk diffusion method
[2] = test system: Escherichia coli; experiment: Antibacterial activity against Escherichia coli MTCC 739 by two-fold serial dilution method
[3] = test system: Bacillus subtilis; experiment: Antibacterial activity against Bacillus subtilis ATCC 6633 by two-fold serial dilution method
[4] = test system: Staphylococcus aureus; experiment: Antibacterial activity against Staphylococcus aureus ATCC 9144 by disk diffusion method
[5] = test system: Candida albicans; experiment: Antifungal activity against Candida albicans ATCC 24433 by two-fold serial dilution method
[6] = test system: Escherichia coli; experiment: Antibacterial activity against Escherichia coli MTCC 739 by disc diffusion method
[7] = test system: Pseudomonas aeruginosa; experiment: Antibacterial activity against Pseudomonas aeruginosa ATCC 25615 by two-fold serial dilution method
[8] = test system: Staphylococcus aureus; experiment: Antibacterial activity against Staphylococcus aureus ATCC 9144 by two-fold serial dilution method
[9] = test system: Aspergillus niger; experiment: Antifungal activity against Aspergillus niger MTCC 872 by two-fold serial dilution method
[10] = test system: Aspergillus fumigatus; experiment: Antifungal activity against Aspergillus fumigatus MTCC 343 by two-fold serial dilution method
[11] = test system: Candida albicans; experiment: Antifungal activity against Candida albicans ATCC 24433 by disk diffusion method
[12] = test system: Pseudomonas aeruginosa; experiment: Antibacterial activity against Pseudomonas aeruginosa ATCC 25615 by disc diffusion method
[13] = test system: Bacillus subtilis; experiment: Antibacterial activity against Bacillus subtilis ATCC 6633 by disk diffusion method
[14] = test system: Aspergillus niger; experiment: Antifungal activity against Aspergillus niger MTCC 872 by disc diffusion method

| Compound | diameter of the inhibition zone (DIZ) [1] [mm] | MIC [2] [µg/mL] | MIC [3] [µg/mL] | diameter of the inhibition zone (DIZ) [4] [mm] | MIC [5] [µg/mL] | diameter of the inhibition zone (DIZ) [6] [mm] | MIC [7] [µg/mL] | MIC [8] [µg/mL] | MIC [9] [µg/mL] | MIC [10] [µg/mL] | diameter of the inhibition zone (DIZ) [11] [mm] | diameter of the inhibition zone (DIZ) [12] [mm] | diameter of the inhibition zone (DIZ) [13] [mm] | diameter of the inhibition zone (DIZ) [14] [mm] | inhibition zone (IZ) [4] [mm] | inhibition zone (IZ) [6] [mm] | inhibition zone (IZ) [12] [mm] | inhibition zone (IZ) [13] [mm] | inhibition zone (IZ) [14] [mm] |
| --- | --- | --- | --- | --- | --- | --- | --- | --- | --- | --- | --- | --- | --- | --- | --- | --- | --- | --- | --- |
| O=C(O)c1cc(-c2ccccc2)[n+](C/C(=N/N=C2/N=C(c3ccccc3)CS2)c2ccccc2)c2ccccc12.[I-] | 12 | > 100 | > 100 | 18 | > 50 | 9 | > 100 | 25 | 12.5 | 25 | 10 | 9 | 10 | 14 | – | – | – | – | – |
| GENTAMICIN | – | 25 | – | – | – | – | – | 6.25 | – | – | – | – | – | – | 22 | 20 | 23 | 22 | 18 |
| O=c1[nH]nc2c3c(c(-c4ccccc4)nc4ccccc43)c(-c3ccccc3)c(-c3ccccc3)n12 | 12 | 25 (≈ 53.8 µM) | > 100 | 8 | > 100 | 21 | 50 (≈ 108 µM) | > 100 | > 100 | 25 (≈ 53.8 µM) | 6 | 12 | 8 | 6 | – | – | – | – | – |
| Cc1ccc(-c2cc(C(=O)O)c3ccccc3[n+]2C/C(=N/N=C2/N=C(c3ccc(N)cc3)CS2)c2ccccc2)cc1.[I-] | 10 | > 100 | > 100 | 40 | 3.12 | 6 | > 100 | 3.12 | > 100 | > 50 | 40 | 6 | 6 | 8 | – | – | – | – | – |
| Nc1ccc(C2=N/C(=N/N=C(/C[n+]3c(-c4ccccc4)cc(C(=O)O)c4ccccc43)c3ccccc3)SC2)cc1.[I-] | 6 | > 100 | > 100 | 24 | 3.12 | 8 | > 100 | 6.25 | > 100 | > 100 | 36 | 9 | 9 | 7 | – | – | – | – | – |
| Cc1ccc(-c2nc3ccccc3c3c2c(-c2ccccc2)c(-c2ccccc2)n2c(=S)[nH]nc32)cc1 | 6 | > 100 | 25 (≈ 50.5 µM) | 6 | > 100 | 6 | > 100 | > 100 | > 100 | > 100 | 6 | 6 | 19 | 7 | – | – | – | – | – |
| OC(Cn1cncn1)(Cn1cncn1)c1ccc(F)cc1F [FLUCONAZOLE] | – | – | – | – | 6.25 (≈ 20.4 µM) | – | – | – | – | – | 21 | – | – | – | – | – | – | – | – |
| Cc1ccc(-c2cc(C(=O)O)c3ccccc3[n+]2C/C(=N/N=C2/N=C(c3ccccc3)CS2)c2ccccc2)cc1.[I-] | 8 | > 100 | > 100 | 14 | 25 | 11 | > 100 | 25 | > 100 | > 100 | 17 | 8 | 9 | 7 | – | – | – | – | – |
| Cc1ccc(-c2nc3ccccc3c3c2c(-c2ccccc2)c(-c2ccccc2)n2c(=O)[nH]nc32)cc1 | 9 | > 100 | 50 (≈ 104 µM) | 11 | 50 (≈ 104 µM) | 6 | > 100 | 50 (≈ 104 µM) | > 100 | > 100 | 14 | 9 | 18 | 6 | – | – | – | – | – |
| Nc1ccc(C2=N/C(=N/N=C(/C[n+]3c(-c4ccc(Cl)cc4)cc(C(=O)O)c4ccccc43)c3ccccc3)SC2)cc1.[I-] | 9 | > 100 | > 100 | 34 | > 100 | 7 | > 100 | 3.12 | > 100 | > 100 | 7 | 8 | 7 | 6 | – | – | – | – | – |
| O=C(O)c1cc(-c2ccc(Cl)cc2)[n+](C/C(=N/N=C2/N=C(c3ccccc3)CS2)c2ccccc2)c2ccccc12.[I-] | 6 | > 100 | > 100 | 15 | 12.5 | 6 | > 100 | 25 | > 100 | > 100 | 19 | 6 | 6 | 6 | – | – | – | – | – |
| S=c1[nH]nc2c3c(c(-c4ccc(Cl)cc4)nc4ccccc43)c(-c3ccccc3)c(-c3ccccc3)n12 | 6 | > 100 | > 100 | 20 | 25 (≈ 48.5 µM) | 7 | 50 (≈ 97.1 µM) | 12.5 (≈ 24.3 µM) | > 100 | > 100 | 18 | 13 | 8 | 6 | – | – | – | – | – |
| S=c1[nH]nc2c3c(c(-c4ccccc4)nc4ccccc43)c(-c3ccccc3)c(-c3ccccc3)n12 | 7 | 50 (≈ 104 µM) | 12.5 (≈ 26 µM) | 8 | > 100 | 18 | > 100 | > 100 | > 100 | > 100 | 8 | 8 | 21 | 6 | – | – | – | – | – |
| O=c1[nH]nc2c3c(c(-c4ccc(Cl)cc4)nc4ccccc43)c(-c3ccccc3)c(-c3ccccc3)n12 | 6 | > 100 | > 100 | 9 | 12.5 (≈ 25.1 µM) | 6 | > 100 | > 100 | > 100 | > 100 | 24 | 6 | 11 | 8 | – | – | – | – | – |
